In patent publication US5260386A, “Synthesis of tagged polymers by post-polymerization (trans) amidation reaction” (Nalco Chemical Company, priority 1993, dated 1993):

Key:
[1] = Survey of relative performance of fluorescent derivatizing agents against a cooling water background; type: physicochemical; details: for Fluorescent Maximum, emission (em) / Fluorescent Maximum, excitation (ex): 0.4 ppm (acid actives) aqueous solution; for Relative Intensity Value, Composition: 0.4 ppm (acid actives), 1,5-naphthalene disulfonic acid standard = 100%, at own fluorescence maximum; for Relative Performance: composition relative intensity / cooling water background relative intensity
Text: In preferred embodiment the derivatizing agents are selected from those that a reasonably high "relative performance" for a given background. As noted above, a molecule is generally considered highly fluorescent when it has a fluorescent quantum efficiency, or fluorescent quantum yield, within the range of from about 0.1 to about 1.0, and a light absorbance molar extinction coefficient of at least 1,000. The magnitude of fluorescent signal, or relative fluorescence, is the product of the fluorescent quantum yield multiplied times the light absorbance molar extinction coefficient. […] The "relative performance", as this phrase is used herein, is the ratio of the relative fluorescence of a composition to the relative fluorescence of a given background medium. The fluorescence readings are typically measured at the excitation/emission wavelengths that represent major peaks for the given fluorescent tagged polymer. […] Some generalities may be considered. Industrial cooling waters generally have an overall higher fluorescent intensity than industrial boiler waters, and therefore a degree of polymer tagging that is reasonably high for use in boiler waters may not be sufficiently high for cooling waters, since of course the intensity of fluorescence must not be overwhelmed by the background fluorescence and the intensity of fluorescence is dependent on the concentration level of the fluorescent species. Similarly, a polymer that is to be used at high concentration levels in a given background medium need not be tagged to the same extent as one that is to be used at much lower concentration levels, other parameters being the same.
Thus in Example 38 below a survey of relative performance values of a number of fluorescent derivatizing agents against a cooling water background is given as representative of the use of such screening method for any other group of derivatizing agents and any other type of background.
The relative performances of a variety of fluorescent derivatizing agents were surveyed against a cooling water background as follows. An aqueous solution of each agent at a concentration level of 0.4 ppm (acid actives) and the fluorescent intensity of each agent at its fluorescence maximum was determined, in comparison to a fluorescence reference standard. The standard used was 1,5-naphthalene disulfonic acid, which is not a derivatizing agent for the purposes of the present invention because it has no amine functionality. This standard was also measured at its fluorescence maximum in an aqueous solution at a concentration of 0.4 ppm (acid actives) and its intensity was assigned a "relative intensity value" of 100%. The "relative intensity values" of each of the other compositions tested were assigned in relationship to the intensity of the standard. For instance, a composition that had twice the intensity of the standard (the standard and the composition each being measured at their own fluorescence maximums) would be given a relative intensity value of 200%. Then the relative intensity values of the various compositions were compared to that of the cooling water background at the fluorescent maximum (peak excitation/emission wavelengths) of the composition. The cooling water fluorescent intensity employed was the average relative intensity of ten representative cooling water formulations measured for combination of wavelengths of excitation and emission within the range required for this survey. The relative performance for each composition thus is the value determined by dividing the relative intensity value determined for the fluorescence of each composition by the relative intensity value of the background fluorescence of cooling water at the same combination of wavelengths. The identities of the various compositions surveyed and the values determined are set forth below in Table VII.

rats = details: cited from earlier work

## Nc1cc(S(=O)(=O)O)cc2cccc(S(=O)(=O)O)c12 [1-amino-3,8-naphthalene disulfonic acid]
[1]
  Fluorescent Maximum, emission (em): 480 nm
  Fluorescent Maximum, excitation (ex): 245 nm
  Relative Intensity Value, Composition: 540%
  Relative Performance: 25

## Nc1ccc2ccc(S(=O)(=O)O)cc2c1 [2-amino-7-naphthalene sulfonic acid]
[1]
  Fluorescent Maximum, emission (em): 440 nm
  Fluorescent Maximum, excitation (ex): 245 nm
  Relative Intensity Value, Composition: 446%
  Relative Performance: 48

## Nc1ccc2cc(S(=O)(=O)O)ccc2c1 [2-amino-6-naphthalene sulfonic acid]
rats
  Reported LD50 (oral/rats): > 5.0 grams/kilogram
[1]
  Fluorescent Maximum, emission (em): 420 nm
  Fluorescent Maximum, excitation (ex): 245 nm
  Relative Intensity Value, Composition: 760%
  Relative Performance: 78

## Nc1cccc2ccc(S(=O)(=O)O)cc12 [1-amino-7-naphthalene sulfonic acid]
[1]
  Fluorescent Maximum, emission (em): 480 nm
  Fluorescent Maximum, excitation (ex): 340 nm
  Relative Intensity Value, Composition: 80%
  Relative Performance: 7

## Nc1ccc2c(S(=O)(=O)O)cc(S(=O)(=O)O)cc2c1 [2-amino-5,7-naphthalene disulfonic acid]
rats
  Reported LD50 (oral/rats): 2.0 grams/kilogram
[1]
  Fluorescent Maximum, emission (em): 460 nm
  Fluorescent Maximum, excitation (ex): 250 nm
  Relative Intensity Value, Composition: 776%
  Relative Performance: 97

## Nc1cccc2c(S(=O)(=O)O)cccc12 [1-amino-5-naphthalene sulfonic acid]
[1]
  Fluorescent Maximum, emission (em): 480 nm
  Fluorescent Maximum, excitation (ex): 240 nm
  Relative Intensity Value, Composition: 14%
  Relative Performance: 0

## Nc1ccccc1C(=O)O [2-amino-benzoic acid]
[1]
  Fluorescent Maximum, emission (em): 400 nm
  Fluorescent Maximum, excitation (ex): 240 nm
  Relative Intensity Value, Composition: 110%
  Relative Performance: 13

## Nc1ccc(S(=O)(=O)O)c2cccc(S(=O)(=O)O)c12 [1-amino-4,8-naphthalene disulfonic acid]
[1]
  Fluorescent Maximum, emission (em): 500 nm
  Fluorescent Maximum, excitation (ex): 255 nm
  Relative Intensity Value, Composition: 122%
  Relative Performance: 5

## Nc1cc(S(=O)(=O)O)c2cccc(S(=O)(=O)O)c2c1 [2-amino-4,8-naphthalene disulfonic acid]
[1]
  Fluorescent Maximum, emission (em): 440 nm
  Fluorescent Maximum, excitation (ex): 245 nm

## Nc1cccc2cc(S(=O)(=O)O)ccc12 [1-amino-6-naphthalene sulfonic acid]
[1]
  Fluorescent Maximum, emission (em): 485 nm
  Fluorescent Maximum, excitation (ex): 245 nm
  Relative Intensity Value, Composition: 74%
  Relative Performance: 3

## Nc1cccc(C(=O)O)c1 [3-amino-benzoic acid]
[1]
  Fluorescent Maximum, emission (em): 370 nm
  Fluorescent Maximum, excitation (ex): 240 nm
  Relative Intensity Value, Composition: 21%
  Relative Performance: 3

## Nc1ccc2ccccc2c1S(=O)(=O)O [2-amino-1-naphthalene sulfonic acid]
[1]
  Fluorescent Maximum, emission (em): 485 nm
  Fluorescent Maximum, excitation (ex): 245 nm
  Relative Intensity Value, Composition: 150%
  Relative Performance: 7

## O=S(=O)(O)c1cccc2c(S(=O)(=O)O)cccc12 [1,5-naphthalene disulfonic acid]
[1]
  Fluorescent Maximum, emission (em): 330 nm
  Fluorescent Maximum, excitation (ex): 290 nm
  Relative Intensity Value, Composition: 100%
  Relative Performance: 14

## Nc1ccc2c(S(=O)(=O)O)cccc2c1S(=O)(=O)O [2-amino-1,5-naphthalene disulfonic acid]
[1]
  Fluorescent Maximum, emission (em): 420 nm
  Fluorescent Maximum, excitation (ex): 250 nm
  Relative Intensity Value, Composition: 486%
  Relative Performance: 49

## Cc1ccc(N)c(S(=O)(=O)O)c1 [2-amino-5-methylbenzene sulfonic acid]
[1]
  Fluorescent Maximum, emission (em): 370 nm
  Fluorescent Maximum, excitation (ex): 240 nm
  Relative Intensity Value, Composition: 19%
  Relative Performance: 3

## Nc1ccccc1 [aniline]
rats
  Reported LD50 (oral/rats): 0.25 grams/kilogram
[1]
  Fluorescent Maximum, emission (em): 340 nm
  Fluorescent Maximum, excitation (ex): 230 nm
  Relative Intensity Value, Composition: 4%
  Relative Performance: 1

## Nc1cc(S(=O)(=O)O)ccc1S(=O)(=O)O [amino-2,5-benzene disulfonic acid]
[1]
  Fluorescent Maximum, emission (em): 380 nm
  Fluorescent Maximum, excitation (ex): 310 nm
  Relative Intensity Value, Composition: 54%
  Relative Performance: 4

## 1-amino-3,6-naphthalene trisulfonic acid
[1]
  Fluorescent Maximum, emission (em): 500 nm
  Fluorescent Maximum, excitation (ex): 360 nm
  Relative Intensity Value, Composition: 4%
  Relative Performance: 0

## Nc1ccc2c(S(=O)(=O)O)cccc2c1 [2-amino-5-naphthalene sulfonic acid]
[1]
  Fluorescent Maximum, emission (em): 440 nm
  Fluorescent Maximum, excitation (ex): 245 nm
  Relative Intensity Value, Composition: 750%
  Relative Performance: 82

## Nc1ccc2cccc(S(=O)(=O)O)c2c1 [2-amino-8-naphthalene sulfonic acid]
[1]
  Fluorescent Maximum, emission (em): 440 nm
  Fluorescent Maximum, excitation (ex): 240 nm
  Relative Intensity Value, Composition: 638%
  Relative Performance: 75

## Nc1ccc(S(=O)(=O)O)cc1 [4-amino-benzene sulfonic acid]
[1]
  Fluorescent Maximum, emission (em): 340 nm
  Fluorescent Maximum, excitation (ex): 250 nm
  Relative Intensity Value, Composition: 26%
  Relative Performance: 8

## Nc1ccc2cc(S(=O)(=O)O)cc(S(=O)(=O)O)c2c1 [2-amino-6,8-naphthalene disulfonic acid]
rats
  Reported LD50 (oral/rats): > 5.0 grams/kilogram
[1]
  Fluorescent Maximum, emission (em): 445 nm
  Fluorescent Maximum, excitation (ex): 250 nm
  Relative Intensity Value, Composition: 69%
  Relative Performance: 7

## Nc1cccc2cccc(S(=O)(=O)O)c12 [1-amino-8-naphthalene sulfonic acid]
[1]
  Relative Intensity Value, Composition: 0%
  Relative Performance: 0
[1]; Table VII survey, 0.4 ppm
  Detectable fluorescence in the survey (in words): did not provide detectable fluorescence

## Nc1ccc(S(=O)(=O)O)c2ccccc12 [1-amino-4-naphthalene sulfonic acid]
[1]
  Fluorescent Maximum, emission (em): 420 nm
  Fluorescent Maximum, excitation (ex): 325 nm
  Relative Intensity Value, Composition: 444%
  Relative Performance: 24

## Nc1cc2ccc(S(=O)(=O)O)cc2cc1S(=O)(=O)O [2-amino-3,6-naphthalene disulfonic acid]
[1]
  Fluorescent Maximum, emission (em): 440 nm
  Fluorescent Maximum, excitation (ex): 250 nm
  Relative Intensity Value, Composition: 77%
  Relative Performance: 8

## Nc1ccc(C(=O)O)cc1 [4-amino-benzoic acid]
[1]
  Fluorescent Maximum, emission (em): 340 nm
  Fluorescent Maximum, excitation (ex): 270 nm
  Relative Intensity Value, Composition: 82%
  Relative Performance: 13
